# Data published in patent US12685315B2, “Herbicidal combination” (UPL do Brasil Industria e Comercio de Insumos Agropecuarios …, priority 2019, dated 2026).
# Tests used:
# [1] = test system: Brachiaria decumbens (BRADC); assay: Field trial of triple mixes of amicarbazone, pre and post-emergence weed control; assay type: in vivo
# Method: (§1) Field trials were done to evaluate the efficacy and synergism of the triple mixes of amicarbazone with other herbicides for the control of weeds in pre and post-emergence application.
# (§2) The composition of the present invention was applied. This test was performed for species of weeds: Grasses namely BRADC=Brachiaria decumbens, CCHEC=Cenchrus echinatus, ELEIN=Eleusine indica, TRCIN=Digitaria insularis and Broadleaves namely IAQGR=Ipomoea grandifolia, EPHHL=Euphorbia heterophylla, COMBE=Commelina benghalensis. Data were collected at various period after application of the composition to the soil and calculated.
# [2] = test system: Cenchrus echinatus (CCHEC); assay: as above; assay type: in vivo
# Method: as §1, §2
# [3] = test system: Ipomoea grandifolia (IAQGR); assay: Field trial of triple mixes of amicarbazone, pre-emergence weed control; assay type: in vivo
# Method: as §1, §2
# Digitaria insularis = assay: Field trial of triple mixes of amicarbazone, post-emergence weed control; assay type: in vivo; details: dose g ai/ha: Amicarbazone 75, S-metolachlor 300, Atrazine 250, mix 75 + 300 + 250
# Method: as §1, §2
# yellow nutsedge = assay: Field trial, post emergence, efficacy on yellow nutsedge (Blacksburg, VA); assay type: in vivo, Cyperus esculentus; details: 2-way mixes 0.5X, 3-way mix 0.33X; for Yellow nut sedge at 29 DAT (Percentage weed cover): dosage: singles 1X; for Yellow nut sedge at 29 DAT (Percentage Control): post emergence, dosage: singles 1 X
# Method: A field trial was conducted to evaluate effectiveness of the combinations of three active ingredients according to the invention when used post emergence, at different rates, compared to industry standards—stand alone and 2 way mixture molecules for efficacy of yellow nutsedge. The active ingredient combination used in the trial was bentazon+halosulfuron+sulfentrazone. The trial was conducted in Blacksburg, VA and was initiated on June 6 under given protocol. The plots were in fallow area primarily covered with yellow nutsedge and tall fescue and were sprayed at 4 week intervals. (2 applications total). The application dosages of the herbicides, when used in isolation and when used in the combinations were as follows: […]
# Eleusine indica = assay: Field trial of triple mixes of amicarbazone, pre and post-emergence weed control; assay type: in vivo; details: Table 8, dose g ai/ha: Amicarbazone 250, Sulfentrazone 150, Diuron 250, mix 250 + 150 + 250
# Method: as §1, §2
# Euphorbia heterophylla = assay: Field trial of triple mixes of amicarbazone, pre-emergence weed control; assay type: in vivo; details: dose g ai/ha: Amicarbazone 250, Sulfentrazone 150, Diuron 250, mix 250 + 150 + 250
# Method: as §1, §2
# [4] = Table 1, Post-Emergence, 7 DAA, dose g ai/ha: Amicarbazone 75, Isoxaflutole 15, Atrazine 250, mix 75 + 15 + 250
# [5] = Table 1, Post-Emergence, 21 DAA, dose g ai/ha: Amicarbazone 75, Isoxaflutole 15, Atrazine 250, mix 75 + 15 + 250
# [6] = Table 1, Post-Emergence, 28 DAA, dose g ai/ha: Amicarbazone 75, Isoxaflutole 15, Atrazine 250, mix 75 + 15 + 250
# [7] = Table 1, Pre-Emergence, 7 DAA, dose g ai/ha: Amicarbazone 75, Isoxaflutole 15, Atrazine 250, mix 75 + 15 + 250
# [8] = Table 1, Pre-Emergence, 21 DAA, dose g ai/ha: Amicarbazone 75, Isoxaflutole 15, Atrazine 250, mix 75 + 15 + 250
# [9] = Table 1, Pre-Emergence, 28 DAA, dose g ai/ha: Amicarbazone 75, Isoxaflutole 15, Atrazine 250, mix 75 + 15 + 250
# [10] = Table 2, Post-Emergence, 7 DAA, dose g ai/ha: Amicarbazone 75, Isoxaflutole 15, Atrazine 250, mix 75 + 15 + 250
# [11] = Table 2, Post-Emergence, 28 DAA, dose g ai/ha: Amicarbazone 75, Isoxaflutole 15, Atrazine 250, mix 75 + 15 + 250
# [12] = Table 2, Post-Emergence, 35 DAA, dose g ai/ha: Amicarbazone 75, Isoxaflutole 15, Atrazine 250, mix 75 + 15 + 250
# [13] = Table 3, 14 DAA, dose g ai/ha: Amicarbazone 75, Isoxaflutole 15, Atrazine 250, mix 75 + 15 + 250
# [14] = Table 3, 21 DAA, dose g ai/ha: Amicarbazone 75, Isoxaflutole 15, Atrazine 250, mix 75 + 15 + 250
# [15] = Table 3, 28 DAA, dose g ai/ha: Amicarbazone 75, Isoxaflutole 15, Atrazine 250, mix 75 + 15 + 250
# [16] = Table 5, Post-Emergence, 21 DAA, dose g ai/ha: Amicarbazone 250, Clomazone 250, Diuron 250, mix 250 + 250 + 250
# [17] = Table 5, Post-Emergence, 28 DAA, dose g ai/ha: Amicarbazone 250, Clomazone 250, Diuron 250, mix 250 + 250 + 250
# [18] = Table 5, Post-Emergence, 35 DAA, dose g ai/ha: Amicarbazone 250, Clomazone 250, Diuron 250, mix 250 + 250 + 250
# [19] = Table 5, Pre-Emergence, 21 DAA, dose g ai/ha: Amicarbazone 250, Clomazone 250, Diuron 250, mix 250 + 250 + 250
# [20] = Table 5, Pre-Emergence, 28 DAA, dose g ai/ha: Amicarbazone 250, Clomazone 250, Diuron 250, mix 250 + 250 + 250
# [21] = Table 5, Pre-Emergence, 35 DAA, dose g ai/ha: Amicarbazone 250, Clomazone 250, Diuron 250, mix 250 + 250 + 250
# [22] = Table 4, 7 DAA, dose g ai/ha: Amicarbazone 250, Clomazone 250, Diuron 250, mix 250 + 250 + 250
# [23] = Table 4, 14 DAA, dose g ai/ha: Amicarbazone 250, Clomazone 250, Diuron 250, mix 250 + 250 + 250
# [24] = Table 4, 28 DAA, dose g ai/ha: Amicarbazone 250, Clomazone 250, Diuron 250, mix 250 + 250 + 250
# [25] = Table 6, Post-Emergence, 21 DAA, dose g ai/ha: Amicarbazone 250, Sulfentrazone 150, Diuron 250, mix 250 + 150 + 250
# [26] = Table 6, Post-Emergence, 28 DAA, dose g ai/ha: Amicarbazone 250, Sulfentrazone 150, Diuron 250, mix 250 + 150 + 250
# [27] = Table 6, Post-Emergence, 35 DAA, dose g ai/ha: Amicarbazone 250, Sulfentrazone 150, Diuron 250, mix 250 + 150 + 250
# [28] = Table 6, Pre-Emergence, 21 DAA, dose g ai/ha: Amicarbazone 250, Sulfentrazone 150, Diuron 250, mix 250 + 150 + 250
# [29] = Table 6, Pre-Emergence, 28 DAA, dose g ai/ha: Amicarbazone 250, Sulfentrazone 150, Diuron 250, mix 250 + 150 + 250
# [30] = Table 6, Pre-Emergence, 35 DAA, dose g ai/ha: Amicarbazone 250, Sulfentrazone 150, Diuron 250, mix 250 + 150 + 250
smiles,measurement,setting,value
CCNc1nc(Cl)nc(NC(C)C)n1 [Atrazine],% Control,[1]; [4],37.5%
same,% Control,[1]; [5],21.3%
same,% Control,[1]; [6],23.8%
same,% Control,[1]; [7],0.0%
same,% Control,[1]; [8],0.0%
same,% Control,[1]; [9],0.0%
same,% Control,[2]; [10],47.5%
same,% Control,[2]; [11],26.3%
same,% Control,[2]; [12],23.8%
same,% Control,[3]; [13],0.0%
same,% Control,[3]; [14],0.0%
same,% Control,[3]; [15],0.0%
same,% Control,"Digitaria insularis; Table 9, 21 DAA",21.3%
same,% Control,"Digitaria insularis; Table 9, 28 DAA",13.8%
same,% Control,"Digitaria insularis; Table 9, 35 DAA",7.5%
CC(C)N1C(=O)c2ccccc2NS1(=O)=O [Bentazone],Yellow nut sedge at 29 DAT (Percentage weed cover),"yellow nutsedge; 05/07, untreated 59",10%
same,Yellow nut sedge at 29 DAT (Percentage Control),yellow nutsedge; 05/07,76%
same,Yellow nut sedge at 29 DAT (Percentage weed cover),"yellow nutsedge; 13/06, untreated 50",40%
same,Yellow nut sedge at 29 DAT (Percentage Control),yellow nutsedge; 13/06,65%
same,Yellow nut sedge at 29 DAT (Percentage weed cover),"yellow nutsedge; 20/6, untreated 49",8%
same,Yellow nut sedge at 29 DAT (Percentage Control),yellow nutsedge; 20/6,75%
CC1(C)CON(Cc2ccccc2Cl)C1=O [Clomazone],% Control,[1]; [16],71.3%
same,% Control,[1]; [17],63.8%
same,% Control,[1]; [18],61.3%
same,% Control,[1]; [19],89.5%
same,% Control,[1]; [20],86.5%
same,% Control,[1]; [21],86.3%
same,% Control,[3]; [22],57.5%
same,% Control,[3]; [23],41.3%
same,% Control,[3]; [24],39.5%
CN(C)C(=O)Nc1ccc(Cl)c(Cl)c1 [Diuron],% Control,[1]; [16],81.3%
same,% Control,[1]; [17],75.0%
same,% Control,[1]; [18],76.3%
same,% Control,[1]; [19],0.0%
same,% Control,[1]; [20],0.0%
same,% Control,[1]; [21],0.0%
same,% Control,[2]; [25],38.8%
same,% Control,[2]; [26],35.0%
same,% Control,[2]; [27],28.8%
same,% Control,[2]; [28],0.0%
same,% Control,[2]; [29],0.0%
same,% Control,[2]; [30],0.0%
same,% Control,"Eleusine indica; Post-Emergence, 14 DAA",53.8%
same,% Control,"Eleusine indica; Post-Emergence, 21 DAA",35.0%
same,% Control,"Eleusine indica; Post-Emergence, 28 DAA",30.0%
same,% Control,"Eleusine indica; Pre-Emergence, 14 DAA",0.0%
same,% Control,"Eleusine indica; Pre-Emergence, 21 DAA",0.0%
same,% Control,"Eleusine indica; Pre-Emergence, 28 DAA",0.0%
same,% Control,"Euphorbia heterophylla; Table 7, 7 DAA",0.0%
same,% Control,"Euphorbia heterophylla; Table 7, 14 DAA",0.0%
same,% Control,"Euphorbia heterophylla; Table 7, 21 DAA",0.0%
same,% Control,[3]; [22],10.0%
same,% Control,[3]; [23],0.0%
same,% Control,[3]; [24],0.0%
COc1cc(OC)nc(NC(=O)NS(=O)(=O)c2c(C(=O)O)c(Cl)nn2C)n1 [Halosulfuron],Yellow nut sedge at 29 DAT (Percentage weed cover),"yellow nutsedge; 05/07, untreated 59",8%
same,Yellow nut sedge at 29 DAT (Percentage Control),yellow nutsedge; 05/07,81%
same,Yellow nut sedge at 29 DAT (Percentage weed cover),"yellow nutsedge; 13/06, untreated 50",50%
same,Yellow nut sedge at 29 DAT (Percentage Control),yellow nutsedge; 13/06,36%
same,Yellow nut sedge at 29 DAT (Percentage weed cover),"yellow nutsedge; 20/6, untreated 49",16%
same,Yellow nut sedge at 29 DAT (Percentage Control),yellow nutsedge; 20/6,60%
CS(=O)(=O)c1cc(C(F)(F)F)ccc1C(=O)c1cnoc1C1CC1 [Isoxaflutole],% Control,[1]; [4],66.3%
same,% Control,[1]; [5],65.0%
same,% Control,[1]; [6],68.8%
same,% Control,[1]; [7],86.3%
same,% Control,[1]; [8],53.8%
same,% Control,[1]; [9],50.0%
same,% Control,[2]; [10],68.8%
same,% Control,[2]; [11],91.3%
same,% Control,[2]; [12],93.3%
same,% Control,[3]; [13],15.0%
same,% Control,[3]; [14],0.0%
same,% Control,[3]; [15],0.0%
CCc1cccc(C)c1N(C(=O)CCl)[C@@H](C)COC [S-metolachlor],% Control,"Digitaria insularis; Table 9, 21 DAA",0.0%
same,% Control,"Digitaria insularis; Table 9, 28 DAA",0.0%
same,% Control,"Digitaria insularis; Table 9, 35 DAA",0.0%
Cc1nn(-c2cc(NS(C)(=O)=O)c(Cl)cc2Cl)c(=O)n1C(F)F [Sulfentrazone],Yellow nut sedge at 29 DAT (Percentage weed cover),"yellow nutsedge; 05/07, untreated 59",9%
same,Yellow nut sedge at 29 DAT (Percentage Control),yellow nutsedge; 05/07,75%
same,Yellow nut sedge at 29 DAT (Percentage weed cover),"yellow nutsedge; 13/06, untreated 50",44%
same,Yellow nut sedge at 29 DAT (Percentage Control),yellow nutsedge; 13/06,58%
same,Yellow nut sedge at 29 DAT (Percentage weed cover),"yellow nutsedge; 20/6, untreated 49",11%
same,Yellow nut sedge at 29 DAT (Percentage Control),yellow nutsedge; 20/6,73%
same,% Control,[2]; [25],86.3%
same,% Control,[2]; [26],83.8%
same,% Control,[2]; [27],82.5%
same,% Control,[2]; [28],17.5%
same,% Control,[2]; [29],13.8%
same,% Control,[2]; [30],9.5%
same,% Control,"Eleusine indica; Post-Emergence, 14 DAA",70.0%
same,% Control,"Eleusine indica; Post-Emergence, 21 DAA",63.8%
same,% Control,"Eleusine indica; Post-Emergence, 28 DAA",55.0%
same,% Control,"Eleusine indica; Pre-Emergence, 14 DAA",93.3%
same,% Control,"Eleusine indica; Pre-Emergence, 21 DAA",96.5%
same,% Control,"Eleusine indica; Pre-Emergence, 28 DAA",92.0%
same,% Control,"Euphorbia heterophylla; Table 7, 7 DAA",0.0%
same,% Control,"Euphorbia heterophylla; Table 7, 14 DAA",10.0%
same,% Control,"Euphorbia heterophylla; Table 7, 21 DAA",17.5%
